Here are results for one compound from ChEMBL document CHEMBL5584341, “Discovery of Potent, Specific, and Orally Available NLRP3 Inflammasome Inhibitors Based on Pyridazine Scaffolds for the Treatment of Septic Shock and Peritonitis” (J Med Chem, 2024).

The target in series [1] is NLR family CARD domain-containing protein 4 (Mus musculus) (UniProt Q3UP24). As to the kind of experiment: Inhibition of flagellin stimulated NLRC4 inflammasome activation in mouse BMDMs assessed as reduction in IL-1beta secretion pretreated with LPS for 3 hrs followed by compound addition for 40 mins prior to flagellin stimulation for 6 hrs by Western blotting analysis. The format is cell-based. The settings on record: BMDM, time 400.0 min.

Series [2] deals with BMDM. As to the kind of experiment: Reduction in LDH release in LPS/nigericin stimulated mouse BMDMs at 5 to 80 nM. The format is functional, cell-based. As to conditions: dose 5-80 nM.
The target in series [3] is Cytochrome P450 2D6 (Homo sapiens, UniProt P10635). As to the kind of experiment: Inhibition of human CYP2D6 at 10 uM relative to control. The format is ADME.
The nature of series [4]: Cmax in BALB/c mouse at 5 mg/kg, po measured upto 24 hrs by LC-MS/MS analysis. It is filed as ADME, organism-based. As to conditions: in vivo.
For series [5], the target named is NACHT, LRR and PYD domains-containing protein 3 (Mus musculus) (UniProt Q8R4B8). As to the kind of experiment: Inhibition of LPS/nigericin induced NLRP3 inflammasome activation in mouse BMDMs assessed as reduction in pyroptosis by measuring […] at 2 to 31.25 nM. The format is cell-based. The settings on record: BMDM, dose 2-31.25 nM.
In series [6] the test system is HepG2. As to the kind of experiment: Cytotoxicity against human HepG2 cells at 5 to 20 uM incubated for 72 hrs by MTT assay. The format is toxicity, cell-based. The settings on record: hepg2, 72 h, dose 5-20 µM.
Series [7] deals with THP-1. As to the kind of experiment: Inhibition of nigericin induced ASC oligomerization in PMA differentiated human THP-1 cells at 5 to 80 nM pretreated compound for 40 mins followed by nigericin stimulation by immunofluorescence analysis. The format is functional, cell-based. As to conditions: dose 5-80 nM.
The target in series [8] is NACHT, LRR and PYD domains-containing protein 3 (Mus musculus) (UniProt Q8R4B8). As to the kind of experiment: Inhibition of NLRP3 inflammasome activation in LPS/nigericin stimulated mouse BMDMs assessed as reduction in IL-1beta release pretreated with LPS for 3 hrs followed by compound addition for 40 mins prior to nigericin stimulation for 40 mins by Western blotting analysis. As to conditions: BMDM, time 80.0 min. The format is cell-based.

Series [9] is described as follows: Tmax in BALB/c mouse at 5 mg/kg, iv measured upto 24 hrs by LC-MS/MS analysis. The format is ADME, organism-based. The settings on record: in vivo.
Series [10] addresses NACHT, LRR and PYD domains-containing protein 3 (Mus musculus) (UniProt Q8R4B8). As to the kind of experiment: Inhibition of NLRP3 inflammasome activation in LPS stimulated mouse BMDMs assessed as reduction in IL-1beta release at 2 to 31.25 nM pretreated with LPS for 3 hrs followed by compound addition for 40 mins prior to MSU stimulation for 6 hrs by ELISA. The format is cell-based. As to conditions: BMDM, dose 2-31.25 nM, time 400.0 min.

Each structure is given as a SMILES string. Active and inactive are the calls of the source. The rule behind the calls is not given here.

Chain of NACHT, LRR and PYD domains-containing protein 3 (Mus musculus) (Q8R4B8 whole entry, the tested form may be a part): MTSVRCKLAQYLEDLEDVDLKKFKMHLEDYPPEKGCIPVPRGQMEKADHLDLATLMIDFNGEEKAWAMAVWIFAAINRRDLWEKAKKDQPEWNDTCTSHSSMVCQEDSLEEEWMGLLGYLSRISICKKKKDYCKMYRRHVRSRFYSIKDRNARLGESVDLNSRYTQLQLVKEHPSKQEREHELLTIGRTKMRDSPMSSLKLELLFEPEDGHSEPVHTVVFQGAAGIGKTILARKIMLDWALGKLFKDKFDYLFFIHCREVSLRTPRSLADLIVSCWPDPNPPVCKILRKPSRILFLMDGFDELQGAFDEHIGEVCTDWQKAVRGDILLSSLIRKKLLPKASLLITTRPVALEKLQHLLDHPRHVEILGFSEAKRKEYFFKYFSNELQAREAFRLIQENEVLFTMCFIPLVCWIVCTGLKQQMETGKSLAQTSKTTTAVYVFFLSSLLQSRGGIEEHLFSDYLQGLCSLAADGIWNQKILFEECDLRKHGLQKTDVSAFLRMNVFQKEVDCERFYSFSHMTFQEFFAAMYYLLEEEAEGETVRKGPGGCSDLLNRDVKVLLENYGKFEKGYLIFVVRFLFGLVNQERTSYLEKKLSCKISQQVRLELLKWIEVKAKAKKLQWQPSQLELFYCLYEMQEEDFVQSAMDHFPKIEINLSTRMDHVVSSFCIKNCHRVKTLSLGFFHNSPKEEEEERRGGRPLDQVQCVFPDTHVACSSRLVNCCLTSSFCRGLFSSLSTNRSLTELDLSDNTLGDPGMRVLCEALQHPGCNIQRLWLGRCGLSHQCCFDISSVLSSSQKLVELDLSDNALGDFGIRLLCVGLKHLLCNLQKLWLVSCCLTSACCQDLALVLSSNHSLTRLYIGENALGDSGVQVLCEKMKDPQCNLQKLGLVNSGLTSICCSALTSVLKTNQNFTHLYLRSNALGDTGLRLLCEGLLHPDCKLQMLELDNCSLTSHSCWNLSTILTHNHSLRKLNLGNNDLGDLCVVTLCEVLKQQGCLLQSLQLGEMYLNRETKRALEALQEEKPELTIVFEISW
Chain of Cytochrome P450 2D6 (P10635 whole entry): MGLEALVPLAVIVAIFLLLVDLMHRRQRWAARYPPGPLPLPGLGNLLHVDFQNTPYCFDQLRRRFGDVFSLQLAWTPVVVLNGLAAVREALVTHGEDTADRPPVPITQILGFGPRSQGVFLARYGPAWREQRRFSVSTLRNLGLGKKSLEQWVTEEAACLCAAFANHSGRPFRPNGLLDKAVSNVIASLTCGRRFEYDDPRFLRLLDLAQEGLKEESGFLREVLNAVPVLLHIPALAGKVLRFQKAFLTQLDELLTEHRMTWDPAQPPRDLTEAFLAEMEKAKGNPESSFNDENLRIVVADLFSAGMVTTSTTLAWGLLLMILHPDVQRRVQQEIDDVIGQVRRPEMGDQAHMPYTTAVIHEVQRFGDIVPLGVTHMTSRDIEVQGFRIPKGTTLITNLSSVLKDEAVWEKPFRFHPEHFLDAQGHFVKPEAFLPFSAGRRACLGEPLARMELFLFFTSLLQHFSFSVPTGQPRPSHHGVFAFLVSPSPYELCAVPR
Chain of NLR family CARD domain-containing protein 4 (Mus musculus) (Q3UP24 whole entry, the tested form may be a part): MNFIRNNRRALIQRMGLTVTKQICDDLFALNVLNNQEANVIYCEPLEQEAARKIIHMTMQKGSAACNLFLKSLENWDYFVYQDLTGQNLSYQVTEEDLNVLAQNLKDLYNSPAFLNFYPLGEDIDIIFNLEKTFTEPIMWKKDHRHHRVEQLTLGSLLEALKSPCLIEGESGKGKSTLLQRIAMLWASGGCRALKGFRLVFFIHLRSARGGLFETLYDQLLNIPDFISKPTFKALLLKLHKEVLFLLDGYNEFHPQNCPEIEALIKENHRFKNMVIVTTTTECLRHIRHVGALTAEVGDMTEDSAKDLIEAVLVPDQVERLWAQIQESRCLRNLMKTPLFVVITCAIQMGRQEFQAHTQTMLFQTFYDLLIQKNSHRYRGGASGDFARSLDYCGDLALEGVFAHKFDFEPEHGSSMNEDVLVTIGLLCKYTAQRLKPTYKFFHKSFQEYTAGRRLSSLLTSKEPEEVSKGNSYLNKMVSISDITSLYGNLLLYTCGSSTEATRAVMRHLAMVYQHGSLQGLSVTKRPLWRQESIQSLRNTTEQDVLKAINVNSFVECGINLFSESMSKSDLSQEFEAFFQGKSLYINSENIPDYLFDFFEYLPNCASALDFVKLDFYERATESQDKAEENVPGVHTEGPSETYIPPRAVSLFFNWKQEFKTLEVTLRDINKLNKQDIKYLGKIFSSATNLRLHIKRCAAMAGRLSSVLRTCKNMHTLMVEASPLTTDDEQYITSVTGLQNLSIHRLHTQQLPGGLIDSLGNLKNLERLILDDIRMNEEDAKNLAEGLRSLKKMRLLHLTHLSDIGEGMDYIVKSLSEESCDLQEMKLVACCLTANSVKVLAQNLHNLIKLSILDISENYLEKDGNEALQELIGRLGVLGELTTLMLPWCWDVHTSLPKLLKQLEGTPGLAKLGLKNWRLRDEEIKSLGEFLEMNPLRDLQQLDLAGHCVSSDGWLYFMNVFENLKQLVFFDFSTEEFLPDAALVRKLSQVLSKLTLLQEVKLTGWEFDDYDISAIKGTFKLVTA

Regarding `OCCN1CCC[C@@H](Nc2nnc(-c3ccc4occc4c3O)c3c2C2CCC3CC2)C1`, the inhibition entry in series [1] was “inactive”. Moreover, the Activity entry was “Dose-Dependent Effect” in series [2] and “Non-Toxic” in series [6]. The “inhibition (INH)” value in [3] is reported as “Active”. In series [4], this compound had a Cmax of 746 ng/mL. The inhibition result in series [5], in [7] and in [10] was “Active” throughout. Further, in series [8], the inhibition result was “Dose-Dependent Effect”. In addition, the Tmax in series [9] was determined as 4.98 min.
